Source: patent publication US8232289B2, “Spiropiperidine compounds as ORL-1 receptor antagonists” (Eli Lilly and Company, priority 2009, dated 2012)
Read-outs that look alike come from different tables or passages of the source.

What was measured:
[1] = target: T1, cloned human ORL1/nociceptin receptors (Homo sapiens, UniProt P41146); experiment: Functional blockade of agonist-mediated G-protein activation, GTP-γ-[35S] binding; type: biochemical
T1 construct: expressed in transfected cells
Text: Agonist-mediated stimulation of G-protein coupled receptors results in the activation of membrane associated Gαβγ-protein heterotrimer complexes, and represents the first step in the transduction of extracellular signals to modification of intracellular pathways. The first step in activation of receptor-mediated activation of Gαβγ-proteins heterotrimer is the exchange of Gα subunit bound guanosine diphoshpate (GDP) for guanosine triphosphate (GTP). The binding of GTP to the Gα subunit causes dissociation of the heterotrimer subunits, Gβ and Gγ, resulting in the modulation of several intracellular signaling cascades. Measurement of receptor-mediated G-protein activation can be measured using the non-hydrolyzable radiolabeled analog of GTP, GTP-γ-[35S]. Utilizing this methodology, antagonist affinity (Kb) is measured in membranes expressing cloned human ORL1/nociceptin receptors using a GTP-γ-[35S] binding assay according to previously described protocols with minor modifications (DeLapp et al., J Pharmacol Exp Ther. 1999 May; 289(2):946-55; Ozaki et al., Eur J Pharmacol. 2000 Aug. 18; 402(1-2):45-53). Assays are conducted in a 200-μl volume with the following buffer composition: 100 mM NaCl, 20 mM HEPES, 5 mM MgCl2, 1 mM EDTA, 0.1% BSA, 3 μM GDP, 0.5 nM [^35S]GTPγS. ORL1 receptor membrane suspension is added at a concentration of 20 μg protein per well and receptor stimulation is achieved using 300 nM nociceptin/OFQ. Wheat germ agglutinin coated SPA beads (Amersham, Arlington Hts., IL) are added at 1 mg per well to detect membrane-bound [^35S]GTPγS. Plates are sealed and incubated for 2 hr. at room temperature. Plates are then placed at 4° C. overnight to allow the SPA beads to settle and then counted in a Wallac Microbeta. Specific [^35S]GTPγS binding is determined as the difference in CPM observed in the absence and presence of 10 μM unlabeled GTPγS. Data are plotted as the percent of specific [^35S]GTPγS bound. Curves are plotted as the percent of specific binding and IC50 values are determined using a sigmoidal dose response curve with variable slope. […]

5-HT6 = 5-HT6 (Homo sapiens, UniProt P50406); experiment: Radioligand binding selectivity, 5-HT6
Text: (§1) Similarly, Ki for the mu, kappa and delta opioids, serotonin, dopamine, adrenergic, mucarinic, and histamine receptors, as well as binding to the norepinephrine transporter, sodium channel, chloride channel, and calcium channel may be determined using membranes expressing the desired receptor/transporter/channels and appropriate corresponding radioligand competitor molecules.

5-HT7 = 5-HT7 (Homo sapiens, UniProt P34969); experiment: Radioligand binding selectivity, 5-HT7
Text: as §1

Adrenergic Alpha1 = experiment: Radioligand binding selectivity, Adrenergic Alpha1
Text: as §1

Histamine H1 = Histamine H1 (Homo sapiens, UniProt P35367); experiment: Radioligand binding selectivity, Histamine H1
Text: as §1

Muscarinic M3 = Muscarinic M3 (Homo sapiens, UniProt P20309); experiment: Radioligand binding selectivity, Muscarinic M3
Text: as §1

Na+ channel = experiment: Radioligand binding selectivity, Na+ channel
Text: as §1

Cl− channel = experiment: Radioligand binding selectivity, Cl− channel
Text: as §1

Ca+2 channel (DHP site) = experiment: Radioligand binding selectivity, Ca+2 channel (DHP site)
Text: as §1

[2] = target: Ca+2 channel (diltiazem site); experiment: Radioligand binding selectivity, Ca+2 channel (diltiazem site)
Text: as §1

[3] = test system: 129S6 wild type and nociceptin/ORL1 receptor knockout mice; experiment: mFST in wild type and ORL-1 knockout mice; type: in vivo
Text: mFST is an established in vivo assay for antidepressant activity (Li et al. J Pharmacol Exp Ther. 319(1):254-9, 2006.). […] The mFST was used to evaluate potential antidepressant-like activity of novel nociceptin/ORL1 antagonists according to previously published methods (Li et al. J Pharmacol Exp Ther. 319(1):254-9, 2006.). Briefly, male NIH-Swiss mice (Harlan Sprague-Dawley, Indianapolis, Ind.) weighing between 25-30 g are used. Group housed animals are removed from the vivarium to the testing area in their own cages and allowed to adapt to the new environment for at least 1 hour before testing. Alternatively, male 129S6 wild type and nociceptin/ORL1 receptor knockout mice were used to confirm dependence of the response to compound was nociceptin/ORL1 receptor dependent. All compounds are prepared in 20% Captisol, 25 mM phosphate buffer, pH 2.0 on the day of use. Mice are placed in a cylinder (diameter: 10 cm; height: 25 cm) filled with 6 cm of water (22-25° C.) for 6 min. The duration of immobility during the last 4 min. of the 6 min. period of the test was scored. A mouse is recorded as immobile when floating motionless or making only those movements necessary to keep its head above water.
Yet further, these effects of reduced immobilization times are not observed when ORL-1 knockout mice, a strain of mice engineered to lack the ORL-1 receptor, are used, showing that the effect is indeed mediated by the ORL-1 receptor.

Sequence of Muscarinic M3 (P20309 whole entry): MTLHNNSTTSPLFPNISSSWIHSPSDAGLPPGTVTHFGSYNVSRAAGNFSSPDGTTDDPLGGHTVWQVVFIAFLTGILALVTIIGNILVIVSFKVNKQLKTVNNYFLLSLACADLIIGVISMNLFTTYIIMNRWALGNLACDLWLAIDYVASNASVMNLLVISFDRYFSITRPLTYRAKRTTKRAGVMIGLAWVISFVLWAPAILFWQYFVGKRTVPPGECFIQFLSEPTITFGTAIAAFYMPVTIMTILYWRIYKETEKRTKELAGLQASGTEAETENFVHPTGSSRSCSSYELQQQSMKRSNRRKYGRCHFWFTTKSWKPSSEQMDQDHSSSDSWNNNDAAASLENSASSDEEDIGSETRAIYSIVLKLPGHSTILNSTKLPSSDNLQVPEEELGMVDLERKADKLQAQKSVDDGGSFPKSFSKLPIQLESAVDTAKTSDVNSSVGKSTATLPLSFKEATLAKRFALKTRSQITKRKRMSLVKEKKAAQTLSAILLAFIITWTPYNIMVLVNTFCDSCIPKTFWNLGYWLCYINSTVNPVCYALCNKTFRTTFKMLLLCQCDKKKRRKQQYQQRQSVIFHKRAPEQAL
T1 sequence (P41146 whole entry): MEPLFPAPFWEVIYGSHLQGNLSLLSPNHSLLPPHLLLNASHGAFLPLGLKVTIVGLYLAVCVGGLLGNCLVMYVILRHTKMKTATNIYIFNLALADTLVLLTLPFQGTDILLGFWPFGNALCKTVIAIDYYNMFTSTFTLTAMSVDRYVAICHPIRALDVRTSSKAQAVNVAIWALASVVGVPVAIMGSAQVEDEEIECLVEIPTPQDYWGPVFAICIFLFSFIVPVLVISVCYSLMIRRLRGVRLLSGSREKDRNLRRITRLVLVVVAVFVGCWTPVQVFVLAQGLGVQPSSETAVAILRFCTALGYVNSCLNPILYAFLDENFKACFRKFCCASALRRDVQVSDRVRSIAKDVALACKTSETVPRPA
Sequence of Histamine H1 (P35367 whole entry): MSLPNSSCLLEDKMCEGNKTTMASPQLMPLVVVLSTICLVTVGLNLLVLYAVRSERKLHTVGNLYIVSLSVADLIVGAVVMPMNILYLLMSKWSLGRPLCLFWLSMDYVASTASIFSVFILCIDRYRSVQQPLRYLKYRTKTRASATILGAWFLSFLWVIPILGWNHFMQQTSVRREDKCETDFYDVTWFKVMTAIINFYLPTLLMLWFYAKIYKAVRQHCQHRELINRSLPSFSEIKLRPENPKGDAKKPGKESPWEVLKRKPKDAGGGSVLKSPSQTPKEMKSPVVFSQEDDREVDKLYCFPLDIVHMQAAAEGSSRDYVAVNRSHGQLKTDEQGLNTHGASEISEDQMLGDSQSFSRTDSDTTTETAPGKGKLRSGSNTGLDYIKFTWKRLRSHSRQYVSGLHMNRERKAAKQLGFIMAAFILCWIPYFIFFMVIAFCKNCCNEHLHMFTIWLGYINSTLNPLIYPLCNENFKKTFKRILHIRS
Sequence of 5-HT7 (P34969 whole entry, species assumed): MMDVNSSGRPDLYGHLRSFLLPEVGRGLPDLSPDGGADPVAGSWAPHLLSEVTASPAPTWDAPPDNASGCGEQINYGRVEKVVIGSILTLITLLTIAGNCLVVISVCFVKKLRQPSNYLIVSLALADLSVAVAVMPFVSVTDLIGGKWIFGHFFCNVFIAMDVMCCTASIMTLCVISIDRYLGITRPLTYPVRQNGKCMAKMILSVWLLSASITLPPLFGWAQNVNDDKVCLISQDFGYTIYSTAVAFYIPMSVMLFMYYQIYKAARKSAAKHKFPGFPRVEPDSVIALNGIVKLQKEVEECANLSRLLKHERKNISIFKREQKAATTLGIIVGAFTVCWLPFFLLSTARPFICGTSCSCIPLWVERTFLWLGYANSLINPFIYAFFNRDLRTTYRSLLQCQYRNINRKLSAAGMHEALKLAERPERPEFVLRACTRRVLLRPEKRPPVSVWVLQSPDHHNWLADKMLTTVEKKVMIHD
Sequence of 5-HT6 (P50406 whole entry, species assumed): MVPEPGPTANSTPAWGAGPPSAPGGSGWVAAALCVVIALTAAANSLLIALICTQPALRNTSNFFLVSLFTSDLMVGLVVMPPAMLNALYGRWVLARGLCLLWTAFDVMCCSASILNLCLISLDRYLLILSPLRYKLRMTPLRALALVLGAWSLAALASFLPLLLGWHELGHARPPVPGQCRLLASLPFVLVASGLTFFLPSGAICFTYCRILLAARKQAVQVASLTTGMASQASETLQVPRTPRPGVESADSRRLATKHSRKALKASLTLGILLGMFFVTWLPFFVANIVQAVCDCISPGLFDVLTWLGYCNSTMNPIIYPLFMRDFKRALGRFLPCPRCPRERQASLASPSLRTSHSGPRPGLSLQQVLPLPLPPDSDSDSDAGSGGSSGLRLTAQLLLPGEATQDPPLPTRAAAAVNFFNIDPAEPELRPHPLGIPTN

Ki (5-HT7; read-out: Ki 5-HT7) [µM] | Ki (Muscarinic M3; read-out: Ki Muscarinic M3) [µM] | SMILES | Kb [1] [µM] | Ki (5-HT6) [µM] | Ki (5-HT7) [µM] | Ki (Adrenergic Alpha1) [µM] | Ki (Histamine H1) [µM] | Ki (Muscarinic M3) [µM] | Ki (Na+ channel) [µM] | Ki (Cl− channel) [µM] | Ki (Ca+2 channel (DHP site)) [µM] | Ki [2] [µM] | effect on immobilization time ([3]; ORL-1 knockout mice) | effect on immobilization time ([3]; wild type mice)
– | – | Cc1nn(-c2ncccc2Cn2cccn2)cc1CN1CCC2(CC1)OCC(F)(F)c1cc(Cl)sc12.O=C(O)C(O)C(O)C(=O)O [Example 23, 2-Chloro-4,4-difluoro-1′-[[3-methyl-1-[3-(pyrazol-1-ylmethyl)-2-pyridyl]pyrazol-4-yl]methyl]spiro[5H-thieno[2,3-c]pyran-7,4′-piperidine] (L)-Tartrate] | 0.00152 | – | – | – | – | – | – | – | – | – | – | –
– | – | O=C(O)C(O)C(O)C(=O)O.OCc1nn(-c2ncccc2F)cc1CN1CCC2(CC1)OCC(F)(F)c1cc(Cl)sc12 [Example 53, [4-[(2-Chloro-4,4-difluoro-spiro[5H-thieno[2,3-c]pyran-7,4′-piperidine]-1′-yl)methyl]-1-(3-fluoro-2-pyridyl)pyrazol-3-yl]methanol (L)-Tartrate] | 0.00062 | > 5.83 | > 3.98 | > 5 | > 5 | > 5 | > 0.5 | > 0.5 | > 5 | > 0.5 | – | –
> 3.98 | > 5 | Cc1nn(-c2ncccc2CO)cc1CN1CCC2(CC1)OCC(F)(F)c1cc(Cl)sc12 [Example 62, [2-[4-[(2-Chloro-4,4-difluoro-spiro[5H-thieno[2,3-c]pyran-7,4′-piperidine]-1′-yl)methyl]-3-methyl-pyrazol-1-yl]-3-pyridyl]methanol] | – | – | – | > 5 | > 5 | – | 0.235 | > 0.5 | > 5 | > 0.5 | no effect | significantly reduce the immobilization time
